# Data taken from ChEMBL document CHEMBL1142441, “Stereochemical studies on the novel monoamine oxidase B substrates (1R,6S)- and (1S,6R)-3-methyl-6-phenyl-3-aza-bicyclo[4.1.0]heptane” (Bioorg Med Chem, 2008).
# Target: T1, Amine oxidase [flavin-containing] B (Homo sapiens, UniProt P27338)
# T1 sequence (P27338 whole entry): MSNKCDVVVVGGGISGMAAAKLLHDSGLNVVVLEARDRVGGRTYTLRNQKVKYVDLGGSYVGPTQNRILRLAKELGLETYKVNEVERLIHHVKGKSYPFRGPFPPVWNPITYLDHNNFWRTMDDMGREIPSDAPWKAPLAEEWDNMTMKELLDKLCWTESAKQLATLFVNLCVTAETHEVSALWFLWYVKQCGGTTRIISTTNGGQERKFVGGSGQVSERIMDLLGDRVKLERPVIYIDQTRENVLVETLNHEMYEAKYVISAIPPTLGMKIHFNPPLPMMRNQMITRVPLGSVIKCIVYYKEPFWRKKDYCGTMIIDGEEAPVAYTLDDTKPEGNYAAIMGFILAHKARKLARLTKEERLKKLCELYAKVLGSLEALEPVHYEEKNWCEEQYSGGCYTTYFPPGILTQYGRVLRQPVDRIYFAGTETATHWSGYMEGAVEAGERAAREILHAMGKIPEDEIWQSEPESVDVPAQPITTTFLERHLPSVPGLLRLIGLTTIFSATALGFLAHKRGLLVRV
# Experiment: Activity of 50 nM human recombinant MAOB after 30 mins
# Settings: 0.5 h
row,SMILES,Vmax [nmol]
1,CN1CC[C@@]2(c3ccccc3)C[C@H]2C1,135
2,CN1CC[C@]2(c3ccccc3)C[C@@H]2C1,135
